Results published in ChEMBL document CHEMBL5113525, “Discovery of the Novel 1H-Pyrrolo[2,3-b]pyridine Derivative as a Potent Type II CDK8 Inhibitor against Colorectal Cancer” (J Med Chem, 2022).
The source made the active and inactive calls. No cut-off for these calls is given here.

Tests used:
[1] = molecular target: Epidermal growth factor receptor (Homo sapiens) (UniProt P00533); test: Inhibition of human EGFR at 1 uM relative to control
[2] = molecular target: Phosphatidylinositol 4-phosphate 3-kinase C2 domain-containing subunit alpha (Homo sapiens) (UniProt O00443); test: Inhibition of human PI3K-C2-alpha at 1 uM relative to control
[3] = molecular target: Serine/threonine-protein kinase NLK (Homo sapiens) (UniProt Q9UBE8); test: Inhibition of human NLK at 1 uM relative to control
[4] = molecular target: Receptor-type tyrosine-protein kinase FLT3 (Homo sapiens) (UniProt P36888); test: Inhibition of human FLT3 at 1 uM relative to control
[5] = molecular target: Aurora kinase C (Homo sapiens) (UniProt Q9UQB9); test: Inhibition of human Aurora C at 1 uM relative to control
[6] = Clearance in Sprague-Dawley rat at 5 mg/kg, iv measured upto 12 hrs by LC-MS/MS analysis; assay type: ADME, organism-based; conditions: in vivo
[7] = molecular target: Epithelial discoidin domain-containing receptor 1 (Homo sapiens) (UniProt Q08345); test: Inhibition of human DDR1 at 1 uM relative to control
[8] = molecular target: High affinity nerve growth factor receptor (Homo sapiens) (UniProt P04629); test: Inhibition of human TRKA at 1 uM relative to control
[9] = molecular target: Citron Rho-interacting kinase (Homo sapiens) (UniProt O14578); test: Inhibition of human CRIK at 1 uM relative to control
[10] = molecular target: Serine/threonine-protein kinase PAK 1 (Homo sapiens) (UniProt Q13153); test: Inhibition of human PAK1 at 1 uM relative to control
[11] = molecular target: Fibroblast growth factor receptor 2 (Homo sapiens) (UniProt P21802); test: Inhibition of human FGFR2 at 1 uM relative to control
[12] = molecular target: Tyrosine-protein kinase Lck (Homo sapiens) (UniProt P06239); test: Inhibition of human LCK at 1 uM relative to control
[13] = molecular target: Glycogen synthase kinase-3 beta (Homo sapiens) (UniProt P49841); test: Inhibition of human GSK3B at 1 uM relative to control
[14] = molecular target: Serine/threonine-protein kinase pim-2 (Homo sapiens) (UniProt Q9P1W9); test: Inhibition of human PIM2 at 1 uM relative to control
[15] = molecular target: Discoidin domain-containing receptor 2 (Homo sapiens) (UniProt Q16832); test: Inhibition of human DDR2 at 1 uM relative to control
[16] = molecular target: 3-phosphoinositide-dependent protein kinase 1 (Homo sapiens) (UniProt O15530); test: Inhibition of human PDK1 at 1 uM relative to control
[17] = molecular target: Cyclin-dependent kinase 8 (Mus musculus) (UniProt Q8R3L8); test: Inhibition of CDK8 in mouse BMDC cells assessed as reduction in IFNgamma-induced STAT1 phosphorylation at S727 residue pretreated with IFNgamma for 2 hrs followed by compound treatment for 24 hrs by Western blot assay; assay type: cell-based

Sequence of Discoidin domain-containing receptor 2 (Homo sapiens) (Q16832 whole entry, the tested form may be a part): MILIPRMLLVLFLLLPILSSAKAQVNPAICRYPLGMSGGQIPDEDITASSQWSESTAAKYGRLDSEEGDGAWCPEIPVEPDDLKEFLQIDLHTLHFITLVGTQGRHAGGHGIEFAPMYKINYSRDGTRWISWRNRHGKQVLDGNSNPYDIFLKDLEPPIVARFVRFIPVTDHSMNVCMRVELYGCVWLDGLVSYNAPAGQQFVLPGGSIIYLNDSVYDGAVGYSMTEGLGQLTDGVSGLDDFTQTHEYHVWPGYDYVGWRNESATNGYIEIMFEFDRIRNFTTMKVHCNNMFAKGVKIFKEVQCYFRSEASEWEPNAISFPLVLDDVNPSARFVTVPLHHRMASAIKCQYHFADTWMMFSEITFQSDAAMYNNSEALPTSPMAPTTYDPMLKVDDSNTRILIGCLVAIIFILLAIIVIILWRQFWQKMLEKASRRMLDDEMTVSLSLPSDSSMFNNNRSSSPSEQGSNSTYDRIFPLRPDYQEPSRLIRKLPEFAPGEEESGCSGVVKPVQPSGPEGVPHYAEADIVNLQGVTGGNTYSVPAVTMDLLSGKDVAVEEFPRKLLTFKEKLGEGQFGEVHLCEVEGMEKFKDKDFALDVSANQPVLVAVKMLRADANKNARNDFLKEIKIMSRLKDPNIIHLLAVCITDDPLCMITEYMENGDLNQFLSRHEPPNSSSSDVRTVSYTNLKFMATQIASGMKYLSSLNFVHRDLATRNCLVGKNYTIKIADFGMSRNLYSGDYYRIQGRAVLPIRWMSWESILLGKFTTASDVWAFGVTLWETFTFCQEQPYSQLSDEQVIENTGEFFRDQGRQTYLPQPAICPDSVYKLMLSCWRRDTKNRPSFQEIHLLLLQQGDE
Sequence of Epidermal growth factor receptor (Homo sapiens) (P00533 whole entry, the tested form may be a part): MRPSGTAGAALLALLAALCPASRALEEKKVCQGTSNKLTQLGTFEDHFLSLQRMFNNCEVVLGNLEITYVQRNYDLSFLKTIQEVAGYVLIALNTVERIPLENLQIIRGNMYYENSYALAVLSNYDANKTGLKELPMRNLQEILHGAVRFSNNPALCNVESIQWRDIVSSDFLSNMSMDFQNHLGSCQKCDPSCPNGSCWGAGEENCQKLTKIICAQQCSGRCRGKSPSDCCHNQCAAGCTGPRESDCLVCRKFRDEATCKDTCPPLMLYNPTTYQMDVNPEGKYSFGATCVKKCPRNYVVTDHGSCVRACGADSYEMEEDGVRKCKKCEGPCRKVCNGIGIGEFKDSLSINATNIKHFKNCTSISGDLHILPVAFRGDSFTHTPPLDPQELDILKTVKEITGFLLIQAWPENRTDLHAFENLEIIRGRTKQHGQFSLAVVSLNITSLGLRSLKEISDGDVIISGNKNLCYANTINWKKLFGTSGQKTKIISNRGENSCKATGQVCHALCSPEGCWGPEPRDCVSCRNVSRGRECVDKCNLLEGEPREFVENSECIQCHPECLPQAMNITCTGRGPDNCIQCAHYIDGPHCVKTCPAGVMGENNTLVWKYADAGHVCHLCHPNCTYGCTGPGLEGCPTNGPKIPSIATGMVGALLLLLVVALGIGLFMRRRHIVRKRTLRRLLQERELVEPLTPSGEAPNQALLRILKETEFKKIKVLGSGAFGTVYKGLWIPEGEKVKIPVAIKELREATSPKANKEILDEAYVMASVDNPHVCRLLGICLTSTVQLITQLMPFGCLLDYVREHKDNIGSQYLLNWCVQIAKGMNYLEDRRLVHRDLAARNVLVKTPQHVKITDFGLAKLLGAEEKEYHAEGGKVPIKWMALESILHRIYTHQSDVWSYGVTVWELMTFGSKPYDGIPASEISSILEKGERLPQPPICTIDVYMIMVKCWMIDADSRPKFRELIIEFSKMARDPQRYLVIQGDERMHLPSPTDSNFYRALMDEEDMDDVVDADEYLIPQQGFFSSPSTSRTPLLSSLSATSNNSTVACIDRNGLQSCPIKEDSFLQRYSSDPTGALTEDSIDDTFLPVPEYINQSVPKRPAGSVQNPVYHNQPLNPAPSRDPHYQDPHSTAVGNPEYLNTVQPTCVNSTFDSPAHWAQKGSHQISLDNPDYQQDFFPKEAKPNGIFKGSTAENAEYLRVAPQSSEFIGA
Sequence of Receptor-type tyrosine-protein kinase FLT3 (Homo sapiens) (P36888 whole entry): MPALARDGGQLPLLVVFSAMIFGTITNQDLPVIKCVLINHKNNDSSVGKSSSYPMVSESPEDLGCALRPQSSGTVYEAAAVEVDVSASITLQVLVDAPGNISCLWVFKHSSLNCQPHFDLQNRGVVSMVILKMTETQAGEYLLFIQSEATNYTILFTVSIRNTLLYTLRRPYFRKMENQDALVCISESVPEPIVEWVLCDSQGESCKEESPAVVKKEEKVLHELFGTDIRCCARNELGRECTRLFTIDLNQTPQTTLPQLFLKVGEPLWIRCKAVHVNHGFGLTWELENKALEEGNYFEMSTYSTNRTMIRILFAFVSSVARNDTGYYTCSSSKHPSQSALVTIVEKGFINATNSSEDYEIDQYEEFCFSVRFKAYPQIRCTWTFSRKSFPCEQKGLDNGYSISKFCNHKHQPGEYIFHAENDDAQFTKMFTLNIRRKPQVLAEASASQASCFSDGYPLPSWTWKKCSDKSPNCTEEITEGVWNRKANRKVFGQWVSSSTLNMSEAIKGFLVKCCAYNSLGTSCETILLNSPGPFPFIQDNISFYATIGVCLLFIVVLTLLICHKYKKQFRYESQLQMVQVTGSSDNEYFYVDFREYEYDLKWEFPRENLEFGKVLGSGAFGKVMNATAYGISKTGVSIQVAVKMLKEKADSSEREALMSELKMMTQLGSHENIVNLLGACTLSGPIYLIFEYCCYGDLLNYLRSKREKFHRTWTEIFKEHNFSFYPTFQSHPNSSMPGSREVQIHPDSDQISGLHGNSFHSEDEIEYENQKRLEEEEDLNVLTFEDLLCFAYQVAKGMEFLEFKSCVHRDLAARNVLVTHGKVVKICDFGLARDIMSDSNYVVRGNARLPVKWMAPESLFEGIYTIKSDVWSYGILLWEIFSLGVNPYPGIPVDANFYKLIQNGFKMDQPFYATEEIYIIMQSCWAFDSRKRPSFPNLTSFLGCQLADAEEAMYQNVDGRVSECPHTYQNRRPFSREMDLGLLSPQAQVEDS
Sequence of High affinity nerve growth factor receptor (Homo sapiens) (P04629 33-796 limits assumed): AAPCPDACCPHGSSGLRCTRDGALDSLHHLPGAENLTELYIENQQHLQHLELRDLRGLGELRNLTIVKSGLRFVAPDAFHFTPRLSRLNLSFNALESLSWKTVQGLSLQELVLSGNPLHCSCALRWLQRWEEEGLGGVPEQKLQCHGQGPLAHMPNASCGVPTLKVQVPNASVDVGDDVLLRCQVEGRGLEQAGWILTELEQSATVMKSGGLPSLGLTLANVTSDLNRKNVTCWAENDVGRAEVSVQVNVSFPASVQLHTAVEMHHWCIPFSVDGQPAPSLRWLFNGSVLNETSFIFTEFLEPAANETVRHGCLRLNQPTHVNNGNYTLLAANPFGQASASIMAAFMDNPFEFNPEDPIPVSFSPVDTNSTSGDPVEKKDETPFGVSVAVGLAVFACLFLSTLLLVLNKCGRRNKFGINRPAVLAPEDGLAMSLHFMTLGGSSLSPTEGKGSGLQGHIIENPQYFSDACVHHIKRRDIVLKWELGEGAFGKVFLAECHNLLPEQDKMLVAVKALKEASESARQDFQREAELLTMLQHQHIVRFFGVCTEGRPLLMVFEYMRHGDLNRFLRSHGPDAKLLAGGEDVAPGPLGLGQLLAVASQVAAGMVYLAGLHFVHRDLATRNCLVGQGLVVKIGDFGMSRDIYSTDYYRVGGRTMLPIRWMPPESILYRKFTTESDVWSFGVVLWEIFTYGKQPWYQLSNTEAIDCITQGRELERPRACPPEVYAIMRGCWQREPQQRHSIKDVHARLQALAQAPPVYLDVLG
Sequence of Aurora kinase C (Homo sapiens) (Q9UQB9 whole entry): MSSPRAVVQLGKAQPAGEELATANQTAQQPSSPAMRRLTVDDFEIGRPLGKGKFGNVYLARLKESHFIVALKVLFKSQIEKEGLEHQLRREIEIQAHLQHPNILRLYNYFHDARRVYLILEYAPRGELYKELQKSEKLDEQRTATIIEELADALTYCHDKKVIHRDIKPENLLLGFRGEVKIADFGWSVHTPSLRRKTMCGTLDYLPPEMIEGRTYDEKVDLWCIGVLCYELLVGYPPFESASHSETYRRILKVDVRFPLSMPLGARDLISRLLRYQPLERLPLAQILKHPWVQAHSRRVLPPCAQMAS
Sequence of 3-phosphoinositide-dependent protein kinase 1 (Homo sapiens) (O15530 whole entry, looked up): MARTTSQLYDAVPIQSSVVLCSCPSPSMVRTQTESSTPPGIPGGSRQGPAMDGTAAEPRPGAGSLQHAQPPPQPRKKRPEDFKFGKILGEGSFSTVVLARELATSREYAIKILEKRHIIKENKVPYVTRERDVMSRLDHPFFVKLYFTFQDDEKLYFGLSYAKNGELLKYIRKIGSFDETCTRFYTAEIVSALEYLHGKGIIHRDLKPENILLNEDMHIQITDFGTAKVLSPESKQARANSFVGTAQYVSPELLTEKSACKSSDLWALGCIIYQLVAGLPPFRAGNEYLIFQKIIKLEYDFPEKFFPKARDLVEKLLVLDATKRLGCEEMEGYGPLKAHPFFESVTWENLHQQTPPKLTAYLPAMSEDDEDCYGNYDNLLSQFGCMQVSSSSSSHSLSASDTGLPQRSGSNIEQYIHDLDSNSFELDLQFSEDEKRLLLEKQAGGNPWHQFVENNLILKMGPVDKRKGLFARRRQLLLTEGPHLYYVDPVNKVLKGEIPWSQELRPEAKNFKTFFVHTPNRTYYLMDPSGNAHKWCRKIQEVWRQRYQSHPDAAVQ
Sequence of Serine/threonine-protein kinase pim-2 (Homo sapiens) (Q9P1W9 whole entry, looked up, the tested form may be a part): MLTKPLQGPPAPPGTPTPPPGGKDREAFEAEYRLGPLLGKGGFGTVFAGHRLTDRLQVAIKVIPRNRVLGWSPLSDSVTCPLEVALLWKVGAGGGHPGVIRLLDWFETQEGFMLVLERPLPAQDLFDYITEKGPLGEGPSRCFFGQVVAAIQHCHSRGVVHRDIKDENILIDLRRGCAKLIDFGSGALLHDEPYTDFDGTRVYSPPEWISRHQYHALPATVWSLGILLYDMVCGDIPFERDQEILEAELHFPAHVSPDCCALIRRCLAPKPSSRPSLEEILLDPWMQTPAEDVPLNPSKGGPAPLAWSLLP

inhibition [1]: 0%
inhibition [2]: 1%
inhibition [3]: 0%
inhibition [4]: 48%
inhibition [5]: 8%
CL [6]: 188.7 mL/min/kg
inhibition [7]: 36%
inhibition [8]: 25%
inhibition [9]: 1%
inhibition [10]: 0%
inhibition [11]: 0%
inhibition [12]: 0%
inhibition [13]: 0%
inhibition [14]: 0%
inhibition [15]: 23%
inhibition [16]: 0%
inhibition [17]: Active
Compound: Cc1ccc(NC(=O)CCc2cccc(-c3cnc4[nH]ccc4c3)c2)cc1C(F)(F)F
